Converted amounts (≈) assume the structure as drawn. Where two headings read alike, the source gives them in different places.
Key:
B. Cereus = assay: Minimum inhibitory concentration (MIC), broth microdilution; format: cell-based; details: for MIC: Bacillus cereus, read-out: Minimum Inhibitory Concentration (MIC) B. Cereus; for activity against B. Cereus (in words): MIC assay, up to 128 μg/mL
Method: (§1) Sophorolipid ester derivatives, as well as the diacetate lactonic sophorolipid have inhibitory activity against a range of human pathogenic bacteria, which was confirmed by experiments and observations. Sophorolipid samples were dissolved in pure DMSO to a final concentration of 2.56 mg/mL that was used as a stock solution. Except the first row, the wells of a 96-well microplate were loaded with 100 μL of sterilized PBS buffer. The stock solution (20 μL) and sterilized PBS buffer pH 7.4 (180 μL) was added into the first row of the 96-well microplate and serially diluted (2-fold dilution) from 256 μg/mL to 2 μg/mL using PBS buffer. After serial dilution, 100 μL of fresh bacteria cells (10^6 cfu/mL) suspended in Soy broth (SB) or Mueller Hinton broth (MHB) culture medium were added to each well and the plates were incubated for 16 or 30 hours. Wells with only cells in 5% DMSO in PBS/medium (no SL) and with only 5% DMSO in PBS/medium (no SL and no cells) were used as positive and negative controls, respectively. […] Lactonic SL as well as all SL esters except SL hexyl ester (no activity against all strains) and SL pentyl ester (no activity against B. Subtilis) were active against all three gram-positive bacterial strains tested (B. Cereus, B. Subtilis, Listeria innocua). The unexpected result in Table 2 is that, as the chain length of the sophorolipid ester increased from methyl to ethyl, propyl and butyl, the MIC values for B. Cereus, B. Subtilis and L. Innocua decrease. The pentyl ester has similarly low MIC values as the butyl ester derivative for B. Cereus and L. Innocua.

B. Subtilis = assay: as above; format: cell-based; details: for MIC: Bacillus subtilis, read-out: Minimum Inhibitory Concentration (MIC) B. Subtilis; for activity against B. Subtilis (in words): MIC assay, up to 128 μg/mL
Method: as §1

Listeria innocua = assay: as above; format: cell-based; details: for MIC: Listeria innocua, read-out: Minimum Inhibitory Concentration (MIC) Listeria Innocua; for activity against Listeria innocua (in words): MIC assay, up to 128 μg/mL
Method: as §1

human pathogen bacteria = assay: Bactericidal activity (time-kill study); format: cell-based; details: roughly 10^7 cfu/mL in PBS pH 7.4; for time to reach 3 log reduction: time-kill, 2×MIC and 4×MIC; for cells killed: at 2×MIC and 4×MIC, within 1 hour
Method: Bactericidal activity (time-kill study): an in vitro assay was performed to test the bactericidal effect of each sophorolipid derivatives on human pathogen bacteria viability. […] After 15 min, 45 min, 1 h and 3 h incubation, cells were spread on agar plates, incubated at 37° C. for 18 hours and examined for colonies. An untreated cells vial (i.e. no SL added) was used as the control.
To further investigate if the growth inhibition by sophorolipid derivatives is associated with cell death, i.e. if sophorolipid derivatives are bactericidal or bacteriostatic, time-kill studies were performed. […] Moreover, the killing rate was higher for these sophorolipid ester derivatives than natural di-acetylated lactonic sophorolipid that requires almost 2 hours to reach a 3 log reduction.

[1] = Solubility in water / aqueous systems (statement); format: physicochemical; details: aqueous formulations
[2] = prior art statement; cited from earlier work
[3] = incubation time 16 h, 10^6 cfu/mL, no visible growth
[4] = incubation time 30 h, 10^6 cfu/mL, no visible growth

Molecule	MIC (B. Cereus; [3])	MIC (B. Subtilis; [3])	activity against B. Subtilis (in words) (B. Subtilis)	MIC (Listeria innocua; [4])	time to reach 3 log reduction (human pathogen bacteria)	cells killed (human pathogen bacteria)	other results
CC(=O)OCC1OC2OC(C)CCCCCC/C=C\CCCCCCCC(=O)OC3C(COC(C)=O)OC(OC2C(O)C1O)C(O)C3O (centres unmarked) [Lactonic SL, LSL 6′,6″-diacetate, reference compound]	16 µg/mL (≈ 23.2 µM)	8 µg/mL (≈ 11.6 µM)	active	32 µg/mL (≈ 46.5 µM)	~2 hour	–	activity against B. Cereus (in words) (B. Cereus): active; activity against Listeria innocua (in words) (Listeria innocua): active; water solubility (in words) [1]: low water solubility; solubility in aqueous systems (in words) [2]: very low solubility
CCCCOC(=O)CCCCCCC/C=C\CCCCCCC(C)OC1OC(CO)C(O)C(O)C1OC1OC(CO)C(O)C(O)C1O (centres unmarked) [SL Butyl ester]	8 µg/mL (≈ 11.8 µM)	8 µg/mL (≈ 11.8 µM)	–	8 µg/mL (≈ 11.8 µM)	≤ 1 hour	more than 99.9%	–
CCOC(=O)CCCCCCC/C=C\CCCCCCC(C)OC1OC(CO)C(O)C(O)C1OC1OC(CO)C(O)C(O)C1O (centres unmarked) [SL Ethyl ester]	32 µg/mL (≈ 49.2 µM)	32 µg/mL (≈ 49.2 µM)	–	32 µg/mL (≈ 49.2 µM)	–	–	–
COC(=O)CCCCCCC/C=C\CCCCCCC(C)OC1OC(CO)C(O)C(O)C1OC1OC(CO)C(O)C(O)C1O (centres unmarked) [SL Methyl ester]	–	–	–	–	≤ 1 hour	more than 99.9%	MIC (B. Cereus; 16 h): 32 µg/mL (≈ 50.3 µM); MIC (B. Subtilis; 16 h): 32 µg/mL (≈ 50.3 µM); MIC (Listeria innocua; 30 h): 64 µg/mL (≈ 101 µM)
CCCOC(=O)CCCCCCC/C=C\CCCCCCC(C)OC1OC(CO)C(O)C(O)C1OC1OC(CO)C(O)C(O)C1O (centres unmarked) [SL Propyl ester]	16 µg/mL (≈ 24.1 µM)	25 µg/mL (≈ 37.6 µM)	–	25 µg/mL (≈ 37.6 µM)	≤ 1 hour	more than 99.9%	–
SL Hexyl ester	–	–	no activity	–	–	–	activity against B. Cereus (in words) (B. Cereus): no activity; Minimum Inhibitory Concentration (MIC) B. Cereus (B. Cereus; [3]): >128 µg/mL; Minimum Inhibitory Concentration (MIC) B. Subtilis (B. Subtilis; [3]): >128 µg/mL; activity against Listeria innocua (in words) (Listeria innocua): no activity; Minimum Inhibitory Concentration (MIC) Listeria Innocua (Listeria innocua; [4]): >128 µg/mL
SL Pentyl ester	–	–	no activity	–	–	–	Minimum Inhibitory Concentration (MIC) B. Cereus (B. Cereus; [3]): 8 µg/mL; Minimum Inhibitory Concentration (MIC) B. Subtilis (B. Subtilis; [3]): >128 µg/mL; Minimum Inhibitory Concentration (MIC) B. Subtilis (B. Subtilis; incubation time 16 h, 10^6 cfu/mL, no visible growth, listed as pentyl ester): > 128 µg/mL; Minimum Inhibitory Concentration (MIC) Listeria Innocua (Listeria innocua; [4]): 8 µg/mL

— US20170143753A1, “SOPHOROLIPID ESTER CHAIN LENGTH DEPENDENCE ON THE INHIBITION OF HUMAN PATHOGENS” (Syntehzyme LLC, priority 2011, published 2017)
